From patent publication US11203563B2, “Preparation of zinc linolenate, and application of zinc linolenate in preparing anti-helicobacter pylori drug” (NANJING MEDICAL UNIVERSITY, priority 2018, dated 2021)

Experiments:
Type in all cases: cell-based
Bacillus cereus = assay: MIC by microdilution method, non-Helicobacter pylori bacteria; parameters: key: +: Bacterial growth; −: No bacterial growth; conditions: 72 h
Procedure: (§1) 2.2 Detection of minimum inhibitory concentration (MIC, 100 µL system) of zinc linolenate for non-Helicobacter pylori bacteria by microdilution method
(§2) (1) Zinc linolenate (2 mg/mL) is prepared.
(§3) (3) Bacterial solution preparation: the non-Helicobacter pylori grown in a log phase on a solid plate is taken to make a bacterial suspension with a BHI culture medium, the absorbance (OD600) is adjusted to 0.3 (1×10^8 CFU/mL), and the bacterial suspension is diluted 100 times to 1×10^6 CFU/mL for use.
(§4) (4) Inoculation of bacterial solution: 10 μL of bacterial solution above is taken and added to the 1-8th wells (the concentration of the bacterial solution per well is about 1.0×10^5 CFU/mL). Culture is performed for 72 h to judge the result. The drug concentrations of the first-seventh wells are 128, 64, 32, 16, 8, 4, and 2 μg/mL, respectively.
(§5) The experiment only makes sense when the bacteria obviously grow in the 8th well, i.e. the positive control well (without antibiotics). When a single drift occurs in the microdilution method, the maximum drug concentration that inhibits bacterial growth should be recorded. If there are multiple drifts, the results should not be reported and the experiment should be repeated. The experiment is repeated 3 times for each drug.

[1] = system: Campylobacter jejuni (NCTC11168); assay: as above; parameters: key: +: Bacterial growth; −: No bacterial growth; conditions: 72 h
Procedure: as §1, §2, §3, §4, §5

[2] = system: Moraxella catarrhalis (ATCC25238); assay: as above; parameters: key: +: Bacterial growth; −: No bacterial growth; conditions: 72 h
Procedure: as §1, §2, §3, §4, §5

[3] = system: Actinobacillus actinomycetemcomitans; assay: as above; parameters: key: +: Bacterial growth; −: No bacterial growth; conditions: 72 h
Procedure: as §1, §2, §3, §4, §5

[4] = system: Salmonella typhi (14028s); assay: as above; parameters: key: +: Bacterial growth; −: No bacterial growth; conditions: 72 h
Procedure: as §1, §2, §3, §4, §5

[5] = system: Helicobacter pylori NSH57; assay: MIC by broth microdilution method; parameters: key: +: Bacterial growth; −: No bacterial growth; conditions: NSH57 (Sensitive), 72 h
Procedure: (§6) 2.1 Detection of minimum inhibitory concentration (MIC, 100 µL system) of zinc linolenate for Helicobacter pylori by a broth microdilution method
as §2
(§7) (3) Bacterial solution preparation: the Helicobacter pylori grown in a log phase on a solid plate is taken to make a bacterial suspension with a BHI culture medium, the absorbance (OD600) is adjusted to 0.3 (1×10^8 CFU/mL), and the bacterial suspension is diluted 10 times to 1×10^7 CFU/mL for later use.
(§8) (4) Inoculation of bacterial solution: 10 μL of bacterial solution above is taken and added to the 1-8th wells (the concentration of the bacterial solution per well is about 1.0×10^6 CFU/mL). Culture is performed for 72 h to judge the result. The drug concentrations of the 1-7th wells are 64, 32, 16, 8, 4, 2, and 1 μg/mL, respectively.
as §5

[6] = system: Helicobacter pylori HP285; assay: MIC by broth microdilution method; parameters: key: +: Bacterial growth; −: No bacterial growth; conditions: HP285 (Clarithromycin and metronidazole resistant), 72 h
Procedure: as §6, §2, §7, §8, §5

[7] = system: Helicobacter pylori HP163; assay: MIC by broth microdilution method; parameters: key: +: Bacterial growth; −: No bacterial growth; conditions: HP163 (Levofloxacin and metronidazole resistant), 72 h
Procedure: as §6, §2, §7, §8, §5

[8] = system: Helicobacter pylori HP161; assay: MIC by broth microdilution method; parameters: key: +: Bacterial growth; −: No bacterial growth; conditions: HP161 (Clarithromycin resistant), 72 h
Procedure: as §6, §2, §7, §8, §5

[9] = system: Helicobacter pylori HP160; assay: MIC by broth microdilution method; parameters: key: +: Bacterial growth; −: No bacterial growth; conditions: HP160 (Metronidazole resistant), 72 h
Procedure: as §6, §2, §7, §8, §5

[10] = system: Helicobacter pylori MSD132; assay: MIC by broth microdilution method; parameters: key: +: Bacterial growth; −: No bacterial growth; conditions: MSD132 (Sensitive), 72 h
Procedure: as §6, §2, §7, §8, §5

[11] = system: 25 kinds of non-Helicobacter pylori bacteria, including Staphylococcus aureus; assay: MIC by microdilution method, 25 kinds of non-Helicobacter pylori bacteria together; conditions: all 25 kinds of non-Helicobacter pylori bacteria, 72 h
Procedure: as §1, §2, §3, §4, §5

## CC/C=C\C/C=C\C/C=C\CCCCCCCC(=O)[O-].CC/C=C\C/C=C\C/C=C\CCCCCCCC(=O)[O-].[Zn+2] [zinc linolenate]
Bacillus cereus; zinc linolenate 2 μg/ml
  Bacterial growth: +
Bacillus cereus; zinc linolenate 4 μg/ml
  Bacterial growth: +
Bacillus cereus; zinc linolenate 8 μg/ml
  Bacterial growth: +
Bacillus cereus; zinc linolenate 16 μg/ml
  Bacterial growth: +
Bacillus cereus; zinc linolenate 32 μg/ml
  Bacterial growth: +
Bacillus cereus; zinc linolenate 64 μg/ml
  Bacterial growth: +
Bacillus cereus; zinc linolenate 128 μg/ml
  Bacterial growth: +
[1]; zinc linolenate 2 μg/ml
  Bacterial growth: +
[1]; zinc linolenate 4 μg/ml
  Bacterial growth: +
[1]; zinc linolenate 8 μg/ml
  Bacterial growth: +
[1]; zinc linolenate 16 μg/ml
  Bacterial growth: +
[1]; zinc linolenate 32 μg/ml
  Bacterial growth: +
[1]; zinc linolenate 64 μg/ml
  Bacterial growth: +
[1]; zinc linolenate 128 μg/ml
  Bacterial growth: +
[2]; zinc linolenate 2 μg/ml
  Bacterial growth: +
[2]; zinc linolenate 4 μg/ml
  Bacterial growth: +
[2]; zinc linolenate 8 μg/ml
  Bacterial growth: +
[2]; zinc linolenate 16 μg/ml
  Bacterial growth: +
[2]; zinc linolenate 32 μg/ml
  Bacterial growth: +
[2]; zinc linolenate 64 μg/ml
  Bacterial growth: +
[2]; zinc linolenate 128 μg/ml
  Bacterial growth: +
[3]; zinc linolenate 2 μg/ml
  Bacterial growth: +
[3]; zinc linolenate 4 μg/ml
  Bacterial growth: +
[3]; zinc linolenate 8 μg/ml
  Bacterial growth: +
[3]; zinc linolenate 16 μg/ml
  Bacterial growth: +
[3]; zinc linolenate 32 μg/ml
  Bacterial growth: +
[3]; zinc linolenate 64 μg/ml
  Bacterial growth: +
[3]; zinc linolenate 128 μg/ml
  Bacterial growth: +
[4]; zinc linolenate 2 μg/ml
  Bacterial growth: +
[4]; zinc linolenate 4 μg/ml
  Bacterial growth: +
[4]; zinc linolenate 8 μg/ml
  Bacterial growth: +
[4]; zinc linolenate 16 μg/ml
  Bacterial growth: +
[4]; zinc linolenate 32 μg/ml
  Bacterial growth: +
[4]; zinc linolenate 64 μg/ml
  Bacterial growth: +
[4]; zinc linolenate 128 μg/ml
  Bacterial growth: +
[5]; zinc linolenate 1 μg/ml
  Bacterial growth: +
[5]; zinc linolenate 2 μg/ml
  Bacterial growth: +
[5]; zinc linolenate 4 μg/ml
  Bacterial growth: +
[5]; zinc linolenate 8 μg/ml
  Bacterial growth: −
[5]; zinc linolenate 16 μg/ml
  Bacterial growth: −
[5]; zinc linolenate 32 μg/ml
  Bacterial growth: −
[5]; zinc linolenate 64 μg/ml
  Bacterial growth: −
[6]; zinc linolenate 1 μg/ml
  Bacterial growth: +
[6]; zinc linolenate 2 μg/ml
  Bacterial growth: +
[6]; zinc linolenate 4 μg/ml
  Bacterial growth: +
[6]; zinc linolenate 8 μg/ml
  Bacterial growth: −
[6]; zinc linolenate 16 μg/ml
  Bacterial growth: −
[6]; zinc linolenate 32 μg/ml
  Bacterial growth: −
[6]; zinc linolenate 64 μg/ml
  Bacterial growth: −
[7]; zinc linolenate 1 μg/ml
  Bacterial growth: +
[7]; zinc linolenate 2 μg/ml
  Bacterial growth: +
[7]; zinc linolenate 4 μg/ml
  Bacterial growth: +
[7]; zinc linolenate 8 μg/ml
  Bacterial growth: −
[7]; zinc linolenate 16 μg/ml
  Bacterial growth: −
[7]; zinc linolenate 32 μg/ml
  Bacterial growth: −
[7]; zinc linolenate 64 μg/ml
  Bacterial growth: −
[8]; zinc linolenate 1 μg/ml
  Bacterial growth: +
[8]; zinc linolenate 2 μg/ml
  Bacterial growth: +
[8]; zinc linolenate 4 μg/ml
  Bacterial growth: +
[8]; zinc linolenate 8 μg/ml
  Bacterial growth: −
[8]; zinc linolenate 16 μg/ml
  Bacterial growth: −
[8]; zinc linolenate 32 μg/ml
  Bacterial growth: −
[8]; zinc linolenate 64 μg/ml
  Bacterial growth: −
[9]; zinc linolenate 1 μg/ml
  Bacterial growth: +
[9]; zinc linolenate 2 μg/ml
  Bacterial growth: +
[9]; zinc linolenate 4 μg/ml
  Bacterial growth: −
[9]; zinc linolenate 8 μg/ml
  Bacterial growth: −
[9]; zinc linolenate 16 μg/ml
  Bacterial growth: −
[9]; zinc linolenate 32 μg/ml
  Bacterial growth: −
[9]; zinc linolenate 64 μg/ml
  Bacterial growth: −
[10]; zinc linolenate 1 μg/ml
  Bacterial growth: +
[10]; zinc linolenate 2 μg/ml
  Bacterial growth: +
[10]; zinc linolenate 4 μg/ml
  Bacterial growth: +
[10]; zinc linolenate 8 μg/ml
  Bacterial growth: −
[10]; zinc linolenate 16 μg/ml
  Bacterial growth: −
[10]; zinc linolenate 32 μg/ml
  Bacterial growth: −
[10]; zinc linolenate 64 μg/ml
  Bacterial growth: −
[11]
  MIC: greater than or equal to 128 μg/mL
